From the RepoRT retention time repository (doi:10.1016/j.scitotenv.2015.08.078)

Experiment: RP, Waters ACQUITY UPLC BEH C18, 100 × 2.1 mm, 1.7 µm, 0.3 mL/min, estimated dead time 0.73 min; A: water + 0.1% formic acid, pH 3; B: methanol + 0.1% formic acid, pH 3; gradient (min/%B) 0/10 14/90 16/90 18/10
Conditions: stereoisomer not certain

Row | Compound | LC retention time
1 | CCC(C)(CC)c1cc(NC(=O)c2c(OC)cccc2OC)on1 [Isoxaben] | 10.4 min
2 | CCC(C)C1OC2(CCC1C)CC1CC(CC=C(C)C(OC3CC(OC)C(OC4CC(OC)C(O)C(C)O4)C(C)O3)C(C)C=CC=C3COC4C(O)C(C)=CC(C(=O)O1)C34O)O2 (configuration not stated) [Ivermectin] | 16.3 min
3 | COC1C(OC(C)=O)CC(=O)OC(C)CC=CC=CC(O)C(C)CC(CC=O)C1OC1OC(C)C(OC2CC(C)(O)C(OC(=O)CC(C)C)C(C)O2)C(N(C)C)C1O (configuration not stated) [Josamycin] | 11.4 min
4 | CNC1(c2ccccc2Cl)CCCCC1=O (configuration not stated) [Ketamine] | 4.88 min
5 | CC(C(=O)O)c1cccc(C(=O)c2ccccc2)c1 (configuration not stated) [Ketoprofen] | 10.3 min
6 | CON=C(C(=O)OC)c1ccccc1COc1ccccc1C [Kresoxim-methyl] | 11.7 min
7 | O=c1[nH]c2c(c(=O)n1C1CCCCC1)CCC2 [Lenacil] | 8.9 min
8 | CN(C)c1ccc(C(c2ccccc2)c2ccc(N(C)C)cc2)cc1 [Leucomalachite green] | 10.4 min
9 | CCCC1CC(C(=O)NC(C(C)O)C2OC(SC)C(O)C(O)C2O)N(C)C1 (configuration not stated) [Lincomycin] | 3.56 min
10 | CON(C)C(=O)Nc1ccc(Cl)c(Cl)c1 [Linuron] | 10.3 min
11 | O=C1Nc2ccc(Cl)cc2C(c2ccccc2Cl)=NC1O (configuration not stated) [Lorazepam] | 9.87 min
12 | O=C(NC(=O)c1c(F)cccc1F)Nc1cc(Cl)c(OC(F)(F)C(F)C(F)(F)F)cc1Cl (configuration not stated) [Lufenuron] | 9.67 min
13 | CC(N)Cc1ccc2c(c1)OCO2 (configuration not stated) [MDA] | 3.62 min
14 | CCNC(C)Cc1ccc2c(c1)OCO2 (configuration not stated) [MDEA] | 4.27 min
15 | CNC(C)Cc1ccc2c(c1)OCO2 (configuration not stated) [MDMA] | 3.79 min
16 | CC(C)(C)NCC(O)c1cc(Cl)c(N)c(C(F)(F)F)c1 (configuration not stated) [Mabuterol] | 6.05 min
17 | COC1CC(OC2CC(C3OC(C)(O)C(C)CC3C)OC2C2(C)CCC(C3(C)CCC4(CC(O)C(C)C(C(C)C5OC(O)(CC(=O)O)C(C)C(OC)C5OC)O4)O3)O2)OC(C)C1OC (configuration not stated) [Maduramicine] | 15.7 min
18 | CCOC(=O)CC(SP(=S)(OC)OC)C(=O)OCC (configuration not stated) [Malathion] | 11.6 min
19 | CCC(C)(C)NCC(O)c1cc(Cl)c(N)c(C(F)(F)F)c1 (configuration not stated) [Mapenterol] | 7.01 min
20 | CN1CCN(c2c(F)cc3c(=O)c(C(=O)O)cn4c3c2OCN4C)CC1 [Marbofloxacin] | 2.84 min
21 | CN(C(=O)COc1nc2ccccc2s1)c1ccccc1 [Mefenacet] | 10.7 min
22 | Cc1cccc(Nc2ccccc2C(=O)O)c1C [Mefenamic acid] | 13.4 min

Row | Compound | LC retention time
23 | CC#Cc1cc(C)nc(Nc2ccccc2)n1 [Mepanipyrim] | 10.7 min
24 | Cc1ccccc1C(=O)Nc1cccc(OC(C)C)c1 [Mepronil] | 10.4 min
25 | CS(=O)(=O)c1ccc(C(=O)C2C(=O)CCCC2=O)c([N+](=O)[O-])c1 [Mesotrione] | 5.53 min
26 | COCC(=O)N(c1c(C)cccc1C)C(C)C(=O)OC (configuration not stated) [Metalaxyl] | 9.73 min
27 | Cc1nnc(-c2ccccc2)c(=O)n1N [Metamitron] | 4.51 min
28 | Cc1cccc(C)c1N(Cn1cccn1)C(=O)CCl [Metazachlor] | 8.95 min
29 | CC1(C)CCC(Cc2ccc(Cl)cc2)C1(O)Cn1cncn1 (configuration not stated) [Metconazole] | 11.9 min
30 | COC(=O)C(C)=COP(=S)(OC)OC [Methacrifos] | 9.37 min
31 | CCC(=O)C(CC(C)N(C)C)(c1ccccc1)c1ccccc1 (configuration not stated) [Methadone] | 10.4 min
32 | CNC(C)C(=O)c1ccccc1 (configuration not stated) [Methcathinone] | 2.95 min
33 | COc1nn(CSP(=S)(OC)OC)c(=O)s1 [Methidathion] | 9.91 min
34 | CNC(=O)Oc1cc(C)c(S(C)(=O)=O)c(C)c1 [Methiocarb sulfone] | 4.46 min
35 | CNC(=O)Oc1cc(C)c(S(C)=O)c(C)c1 (configuration not stated) [Methiocarb sulfoxide] | 4.6 min
36 | CNC(=O)Oc1cc(C)c(SC)c(C)c1 [Methiocarb] | 8.89 min
37 | CNC(=O)ON=C(C)SC [Methomyl] | 3.09 min
38 | CON(C)C(=O)Nc1ccc(Br)cc1 [Metobromuron] | 8.53 min
39 | CCc1cccc(C)c1N(C(=O)CCl)C(C)COC (configuration not stated) [Metolachlor] | 11.7 min
40 | COCCc1ccc(OCC(O)CNC(C)C)cc1 (configuration not stated) [Metoprolol] | 5.31 min
41 | COc1cc(OC)n2nc(S(=O)(=O)Nc3c(Cl)ccc(C)c3Cl)nc2n1 [Metosulam] | 7.54 min
42 | COc1ccc(NC(=O)N(C)C)cc1Cl [Metoxuron] | 6.3 min
43 | CSc1nnc(C(C)(C)C)c(=O)n1N [Metribuzin] | 7.06 min
44 | Cc1ncc([N+](=O)[O-])n1CCO [Metronidazole (MNZ)] | 5.38 min

Row | Compound | LC retention time
45 | COC(=O)c1ccccc1S(=O)(=O)NC(=O)Nc1nc(C)nc(OC)n1 [Metsulfuron methyl] | 5 min
46 | COC(=O)C=C(C)OP(=O)(OC)OC [Mevinphos trans] | 4.95 min
47 | CCC1(C2OC(C3OC(O)(CO)C(C)CC3C)CC2C)CCC(C2(C)CCC3(CC(O)C(C)C(C(C)C(OC)C(C)C(=O)O)O3)O2)O1 (configuration not stated) [Monensin] | 15.3 min
48 | CNC(=O)C=C(C)OP(=O)(OC)OC [Monocrotophos] | 3.57 min
49 | CON(C)C(=O)Nc1ccc(Cl)cc1 [Monolinuron] | 8.07 min
50 | CN1CCC23c4c5ccc(O)c4OC2C(O)C=CC3C1C5 (configuration not stated) [Morphine] | 2.86 min
51 | CON=C1CC2(CC3CC(CC=C(C)CC(C)C=CC=C4COC5C(O)C(C)=CC(C(=O)O3)C45O)O2)OC(C(C)=CC(C)C)C1C (configuration not stated) [Moxidectin] | 15.8 min
52 | COc1c(N2CC3CCCNC3C2)c(F)cc2c(=O)c(C(=O)O)cn(C3CC3)c12 (configuration not stated) [Moxifloxacin] | 5.23 min
53 | CCCCC(C#N)(Cn1cncn1)c1ccc(Cl)cc1 (configuration not stated) [Myclobutanil] | 10.6 min
54 | CCn1cc(C(=O)O)c(=O)c2ccc(C)nc21 [Nalidixic acid] | 7.99 min
55 | CC12CCC3C4CCC(=O)C=C4CCC3C1CCC2O (stereo not drawn) [Nandrolone. beta-nortestosterone] | 10.6 min
56 | CCN(CC)C(=O)C(C)Oc1cccc2ccccc12 (configuration not stated) [Napropamide] | 11 min
57 | O=C(O)c1ccccc1C(=O)Nc1cccc2ccccc12 [Naptalam] | 6.59 min
58 | CCC(C(=O)O)C1OC(C(C)C(O)C(C)C(=O)C(CC)C2OC3(C=CC(O)C4(CCC(C)(C5CCC(O)(CC)C(C)O5)O4)O3)C(C)CC2C)C(C)CC1C (configuration not stated) [Narasin] | 16.5 min
59 | COc1cc(OC)nc(NC(=O)NS(=O)(=O)c2ncccc2C(=O)N(C)C)n1 [Nicosulfuron] | 5.39 min
60 | CN1CCCC1c1cccnc1 (configuration not stated) [Nicotine] | 1.12 min
61 | O=C1CN(N=Cc2ccc([N+](=O)[O-])o2)C(=O)N1 [Nitrofurantoin] | 2.83 min
62 | NC(=O)NN=Cc1ccc([N+](=O)[O-])o1 [Nitrofurazone] | 2.99 min
63 | O=C(OC1CC2CCC(N2)C1C(=O)O)c1ccccc1 (configuration not stated) [Norbenzoylecgonine] | 5.1 min
64 | COC(=O)C1C2CCC(CC1OC(=O)c1ccccc1)N2 (configuration not stated) [Norcocaine] | 6.29 min
65 | O=C1CN=C(c2ccccc2)c2cc(Cl)ccc2N1 [Nordiazepam] | 10.5 min
66 | CCn1cc(C(=O)O)c(=O)c2cc(F)c(N3CCNCC3)cc21 [Norfloxacin] | 4.27 min

Row | Compound | LC retention time
67 | CNc1cnn(-c2cccc(C(F)(F)F)c2)c(=O)c1Cl [Norflurazon] | 9.22 min
68 | O=C(NC(=O)c1c(F)cccc1F)Nc1ccc(OC(F)(F)C(F)OC(F)(F)F)c(Cl)c1 (configuration not stated) [Novaluron] | 12.6 min
69 | OC(c1ccc(F)cc1)(c1cncnc1)c1ccccc1Cl (configuration not stated) [Nuarimol (Trimidal)] | 10 min
70 | CCCCCc1cc(O)c2c(c1)OC(C)(C)C1CC(O)C(C)=CC21 (configuration not stated) [OH-THC] | 13.9 min
71 | CC1Cc2c(Cl)cc(C(=O)NC(Cc3ccccc3)C(=O)O)c(O)c2C(=O)O1 (configuration not stated) [Ochratoxin A] | 9.15 min
72 | CC1Cc2c(Cl)cc(C(=O)O)c(O)c2C(=O)O1 (stereo not drawn) [Ochratoxin Alpha] | 11.2 min
73 | CCCCCCCCn1sccc1=O [Octhilinone (2-Octyl-4-isothiazoline-3-one)] | 11 min
74 | CC1COc2c(N3CCN(C)CC3)c(F)cc3c(=O)c(C(=O)O)cn1c23 (configuration not stated) [Ofloxacin] | 4.08 min
75 | Cc1cccc(C)c1N(C(=O)CCl)C1CCOC1=O (configuration not stated) [Ofurace] | 7.69 min
76 | Cc1cc2c(s1)Nc1ccccc1N=C2N1CCN(C)CC1 [Olanzapine] | 3.3 min
77 | COc1ccc2nc(S(=O)Cc3ncc(C)c(OC)c3C)[nH]c2c1 (configuration not stated) [Omeprazole] | 7.14 min
78 | CNC(=O)CSP(=O)(OC)OC [Omethoate] | 2.5 min
79 | CCN(CC)C(=O)SCc1ccccc1Cl [Orbencarb] | 11.9 min
80 | CCCN(CCC)c1c([N+](=O)[O-])cc(S(N)(=O)=O)cc1[N+](=O)[O-] [Oryzalin] | 11.1 min
81 | CC(C)Oc1cc(-n2nc(C(C)(C)C)oc2=O)c(Cl)cc1Cl [Oxadiazon] | 13 min
82 | COCC(=O)N(c1c(C)cccc1C)N1CCOC1=O [Oxadixyl] | 6.71 min
83 | CNC(=O)ON=C(SC)C(=O)N(C)C [Oxamyl] | 2.84 min
84 | Cc1cc(C)nc(NC(=O)NS(=O)(=O)c2ccccc2C(=O)OC2COC2)n1 [Oxasulfuron] | 6.3 min
85 | COC(=O)Nc1nc2ccc(S(=O)c3ccccc3)cc2[nH]1 (configuration not stated) [Oxfendazole] | 7.31 min
86 | CCn1cc(C(=O)O)c(=O)c2cc3c(cc21)OCO3 [Oxolinic acid] | 6.58 min
87 | CC1=C(C(=O)Nc2ccccc2)S(=O)(=O)CCO1 [Oxycarboxin] | 5.41 min
